Columns and labels:
[1] = test system: multi-drug resistance pump; experiment: Potency with inhibition of the multi-drug resistance pump; format: cell-based
WEHI 231 cells [2] = experiment: Inhibition of CpG-ODN 1760 protection against α-sIgM-induced inhibition of [3H] thymidine uptake; format: cell-based, mouse; conditions: at nanomolar concentrations; 10 μg/mL α-sIgM, 6 μg/mL ODN 1760
Protocol: The assay of [^3H] Thymidine incorporation was carried out as follows. WEHI 231 cells (200 μL at 2×10^5/milliliter, in duplicate or triplicate) were incubated in a 96-well plate (Costar, Cambridge Mass.). Additions were made as indicated. After incubating for 16 hours, 0.5 μCi [methyl-^3H] thymidine (2 Ci/millimole, DuPont NEN, Boston Mass.) was added to each well, and the cells were incubated for another 4 hours. Cellular DNA was then captured onto glass fiber filters (Whatman 934AH) using a cell harvester (Brandel, Gaithersberg Md.). The filters were dried, placed into plastic scintillation vials with 10 milliliters of scintillation cocktail (EconoSafe, Research Products International, Mount Prospect Ill.), and counted in a liquid scintillation counter (Beckman LS-3133 T). The ^3H recovered on the filter was expressed as a fraction of the ^3H added.
Referring to experiments summarized in FIG. 1, WEHI 231 cells (ca. 2×10^5 per milliliter) were incubated for 16 hours at 37° C. with 10 μgrams/milliliter α-sIgM, 6 μgrams/milliliter ODN 1760, and the indicated concentration of the compound. After 16 hours, 0.5 μCi [^3H] thymidine was added. After 4 more hours incubation, the cellular DNA was harvested onto glass fiber filters. The dry filters were counted in a liquid scintillation counter.
Each experimental point was the mean of at least duplicate measurements.
Referring to the experiments summarized in FIG. 3, 10 μgrams/milliliter α-sIgM and the indicated concentrations of ODN 1760 and quinacrine were added simultaneously to WEHI 231 cells. Thymidine incorporation was estimated at 16 hours as described for Example 1.
Referring to the experiments summarized in FIG. 4, WEHI 231 cells were incubated with α-sIgM and ODN 1760. At times thereafter 0.1 μM quinacrine was added (data shown in the left three bars). Cells were incubated with 10 μgrams/milliliter (α-sIgM and ODN 1760 (6 μgrams/milliliter, phosphorothioate or a phosphodiester ODN with the same sequence as 1760 (PD ODN) (30 μM at time 0 hours and 8 hours; data represented in right six bars in FIG. 4). [^3H] thymidine incorporation was estimated at 16 hours.
The symbol — indicates no change. Me and Et indicate —CH3 and —CH2CH3 respectively. Aromatic substituents are in the para position except as indicated. The activity is —log10 of the concentration (M) required for half maximal inhibition of CpG-ODN effect on [^3H] thymidine uptake in the presence of α-sIgM.

[3] = test system: human peripheral blood mononuclear cells (PBMC); experiment: ODN 1760-induced IL-6 production in human peripheral blood mononuclear cells; format: cell-based; conditions: 24 hours
Protocol: Referring to the experiments summarized in FIG. 9, human peripheral blood mononuclear cells (PBMC) from three donors were incubated with or without ODN 1760 and the indicated concentration of test compound. After 24 hours, the concentration of IL-6 was determined in the supernatant. The figure indicates the percentage of IL-6 in reference to ODN-treated cells. The IL-6 amounts for control sample per donor were as follows: donor 1, 203 picograms/milliliter; donor 2, 71.5 picograms/milliliter; donor 3, 465 picograms/milliliter. IL-6 measured from untreated cells was 0-21 picograms/milliliter. Results from the three donors were averaged, and error bars indicate 1 standard deviation.

human mononuclear cells = experiment: ODN 1760-induced [3H] thymidine incorporation in human mononuclear cells; format: cell-based; conditions: unfractionated human peripheral blood cells, four days
Protocol: [^3H] thymidine incorporation (18 hour pulse) was then measured. […] Thymidine incorporation for untreated samples was less than 0.05%. Samples from three donors were averaged, and error bars indicate 1 standard deviation.

WEHI 231 cells [4] = experiment: CpG-ODN-induced IL-6 synthesis (ELISA); format: cell-based, mouse; conditions: 30 nM
Protocol: The assay of IL6 was generally carried out as follows. […] After 24 hours, the IL-6 content of the supernatant was assayed by enzyme-linked immunoassay using two monoclonal antibodies in a sandwich technique as described by the manufacturer, using standards supplied (PharMingen, San Diego Calif.).

7TD1 cells = experiment: Inhibition of 7TD1 cell growth; format: cell-based, mouse
Protocol: One particularly useful cell line for the assay of immunostimulatory DNA action is the mouse-mouse hybridoma plasma cell line 7TD1(ATTC #CRL 1851), which requires exoqenous IL-6 for growth, and has been used to characterize and assay IL-6 (Papadopolous et al., 1995. J. Clin. Lab. Anal. 9:234-7; Krakauer, 1993. J. Immunoassay 14:267-77).
The 7TD1 cells were grown in RPMI 1640 supplemented with 10% fetal bovine serum (heat inactivated at 65° C., 1 hour), 0.3 grams/Liter L-glutamine, 50 milligrams/Liter gentamycin, 0.05 mM 2-mercaptoethanol, and 10 units per milliliter murine IL-6 in a 37° C. humid atmosphere with 5% CO2. Viable 7TD1 cells were counted in a hemocytometer chamber in duplicate after dilution with 0.4% trypan blue.
The 7TD1 cells were incubated for five days and were washed twice with medium to remove IL-6, and resuspended at 2×10^4 per milliliter in medium. Cell counts were performed and the percent inhibition of growth was computed. The term “anti” refers to 40 nanograms/milliliter neutralizing antibody to IL-6.

[5] = 6 μg/mL ODN 1760 + 1 μg chloroquine (so in the source)
[6] = 6 μg/mL ODN 1760 + 3μ chloroquine (so in the source)

Compound: CCN(CC)CCCC(C)Nc1ccnc2cc(Cl)ccc12 (centres unmarked) [chloroquine]
- Change of potency on inhibition of the multi-drug resistance pump [1]: magnified
- Inhibition of the CpG-ODN effect (FIG. 1) (WEHI 231 cells [2]): completely inhibited
- Effect on ODN 1760-induced IL-6 production (FIG. 9) [3]: inhibited
- Effect on ODN 1760-induced thymidine incorporation (FIG. 8) (human mononuclear cells): inhibited
- Reversal of ODN 1760 effect on IL-6 elaboration (WEHI 231 cells [4]): completely reversed
- 7TD1 cells/μL (7TD1 cells; [5]): 7 cells/μL
- % Growth Inhibition (7TD1 cells; [5]): 98.1%
- 7TD1 cells/μL (7TD1 cells; [6]): 10 cells/μL
- % Growth Inhibition (7TD1 cells; [6]): 97.5%
- 7TD1 cells/μL (7TD1 cells; 10 μg/mL IL-6 + 1 μM compound): 610 cells/μL
- % Growth Inhibition (7TD1 cells; 10 μg/mL IL-6 + 1 μM compound): 31.2%
- % Growth Inhibition (7TD1 cells; 10 μg/mL IL-6 + 3 μM compound): 38.3%
- Effect on IL-6-induced growth (7TD1 cells; 7TD1 cells, IL-6): little effect
- Effect on growth stimulation by CpG-ODN (7TD1 cells; 7TD1 cells, ODN 1760): blocked
